# Assays:
# [1] = test system: LPS-stimulated RAW264.7 cell lines; experiment: LPS-induced NO production (Griess) in RAW264.7; format: cell-based, murine; conditions: for The production of NO / inhibition at 10 µM: LPS-stimulated RAW264.7; for The production of NO: LPS group 49.86 ± 0.62, control 1.20 ± 0.38; for inhibitory activity against NO production compared with curcumin: 10 μM; for inhibition at 10 µM: Mus musculus, read-out: inhibition rate (anti-inflammatory activity)
# Description: RAW 264.7 cells were plated in 96-well plates at a density of 1 × 10^4 cells/well and incubated overnight at 37 °C under 5% CO2. […] Dexamethasone (Solarbio, D8040, Beijing, China) was used as the positive control. Then, 24 h later, NO production was determined by measuring the nitrite content using Griess reagents. Fifty microliters of culture supernatants were transferred to 96-well plates and mixed with 50 μL Griess reagent A. After incubation at room temperature for 5 min, the samples were mixed with an equal volume Griess reagent B for another 5 min. The absorbance of each mixture at 540 nm was measured using a microplate reader.
# [2] = Aqueous solubility determination by UV spectrophotometer; format: physicochemical; conditions: water, thermodynamic from solid, saturated solution concentration
# Description: A UV spectrophotometer was used to test the aqueous solubility of target compounds. Each compound to be tested was prepared into solutions with concentrations of 0.2 M, 0.1 M, 0.05 M, 0.025 M, 0.0125 M, 0.00625 M, and 0.003125 M. The optical density (OD) values of the prepared solutions were measured using an ultraviolet spectrophotometer, and concentration–OD-value standard curves were drawn for each compound to be tested. The saturated solutions of the target compounds were diluted by 5000 times and detected using an ultraviolet spectrophotometer to measure the OD values, respectively. The measured OD values were substituted into the corresponding concentration-OD value standard curve to calculate the diluted concentrations, which were multiplied by 5000 to obtain the saturated solution concentrations of the target compounds.
# [3] = test system: H2O2-stimulated PC 12 cell lines; experiment: Protection against H2O2-induced oxidative damage (CCK-8); format: cell-based, rat; conditions: for Cell viability / viability at 5 µM / viability at 10 µM / viability at 20 µM: H2O2-induced oxidative damage, PC 12, H2O2 group 49.69 ± 1.37, control 100; for Cell viability: in % (unit assumed); for viability at 5 µM / viability at 10 µM / viability at 20 µM: Rattus norvegicus; for viability at 5 µM: PC-12, Dose 5 μM; for viability at 10 µM: PC-12, Dose 10 μM; for viability at 20 µM: PC-12, Dose 20 μM; for anti-oxidant capacity compared with curcumin: 10 μM; for anti-oxidant capacity compared with curcumin / cell survival rate (anti-oxidant): H2O2-stimulated PC 12; for cell survival rate (anti-oxidant): at 10 μM
# Description: PC 12 cells were seeded in 96-well plates at a density of 8000 cells/well and incubated overnight. […] After incubating under the same conditions for 24 h, 10 μL CCK-8 solution was added to each well. After 2 h incubation, the absorbance of each well was measured at 450 nm using a microplated reader (Multiskan MK-3, Thermo, Waltham, MA, USA).
# PC 12 cell lines = experiment: Radiation protection in vitro (CCK-8); format: cell-based, rat; conditions: for Cell viability / viability at 5 µM / viability at 10 µM / viability at 20 µM: radiation 8.0 Gy, PC 12, radiation group 50.22 ± 1.08; for Cell viability: in % (unit assumed); for viability at 5 µM / viability at 10 µM / viability at 20 µM: Rattus norvegicus; for viability at 5 µM: PC-12, Dose 5 μM; for viability at 10 µM: PC-12, Dose 10 μM; for viability at 20 µM: PC-12, Dose 20 μM; for radiation protection capability compared with curcumin / radiation protection capacity: 10 μM; for radiation protection capacity: versus radiation group
# Description: The rat adrenal pheochromocytoma cells (PC 12) were used for in vitro studies. A Cell Counting Kit-8 (CCK-8, Applygen Technologies Co., Ltd., Beijing, China) assay was used to determine cell viability. […] Cells were irradiated with dose of 8.0 Gy at a dose rate of 0.8 Gy/min. Then, 10 μL CCK-8 solution was added to all the wells. After 4 h incubation, the absorbance at 450 nm of each well was measured in a multiscan photometer.
SMILES,solubility [2] [mg/mL],The production of NO ([1]; Dose 5 μM),The production of NO ([1]; Dose 10 μM),The production of NO ([1]; Dose 15 μM),Cell viability ([3]; Dose 5 μM),Cell viability ([3]; Dose 10 μM),Cell viability ([3]; Dose 20 μM),Cell viability (PC 12 cell lines; Dose 20 μM),viability at 5 µM (PC 12 cell lines) [%],viability at 10 µM (PC 12 cell lines) [%],inhibitory activity against NO production compared with curcumin [1],viability at 5 µM [3] [%],viability at 10 µM [3] [%],viability at 20 µM [3] [%],radiation protection capacity (PC 12 cell lines),Cell viability (PC 12 cell lines; Dose 5 μM),Cell viability (PC 12 cell lines; Dose 10 μM),other results
COc1cc(/C=C/C(=O)CC(=O)/C=C/c2ccc(O)cc2F)cc(CN(C)C)c1O [Compound 4a],314,31.54 ± 1.30,20.51 ± 1.88,9.45 ± 1.96,67.52 ± 3.31,75.00 ± 2.39,86.52 ± 5.31,97.55 ± 3.44,56.4 ± 3.51,61.5 ± 3.74,–,–,–,–,–,–,–,–
CCOc1cc(/C=C/C(=O)CC(=O)/C=C/c2cc(CN(C)C)c(O)c(OC)c2)ccc1O [Compound 1a],201,44.93 ± 0.35,32.32 ± 1.94,5.77 ± 0.09,66.25 ± 1.36,80.18 ± 1.38,89.36 ± 1.63,–,60 ± 5.39,62.9 ± 6.12,–,–,–,–,a certain degree of radiation protection capacity,–,–,anti-oxidant capacity compared with curcumin [3]: better anti-oxidant capacity
COc1cc(/C=C/C(=O)CC(=O)/C=C/c2ccc(O)c(Cl)c2)cc(CN(C)C)c1O [Compound 7a],258,35.35 ± 1.59,16.83 ± 0.42,9.77 ± 0.63,54.89 ± 1.04,62.07 ± 4.16,79.65 ± 3.04,–,62.1 ± 1.39,65.5 ± 2.03,better inhibitory activity,–,–,–,–,–,–,cell survival rate (anti-oxidant) [3]: 62%; viability at 20 µM (PC 12 cell lines): 75.7 ± 2.05%
COc1cc(/C=C/C(=O)CC(=O)/C=C/c2ccc(O)c(Cl)c2)cc(CN(C)C)c1O [Compound 7],–,35.15 ± 2.72,18.46 ± 2.34,10.47 ± 1.32,–,–,–,69.98 ± 4.31,–,–,–,54.4 ± 1.18,61.9 ± 1.29,78.2 ± 1.43,–,61.54 ± 2.47,63.26 ± 3.00,–
COc1cc(O)ccc1/C=C/C(=O)CC(=O)/C=C/c1cc(CN(C)C)c(O)c(OC)c1 [Compound 9],–,42.38 ± 2.73,29.76 ± 1.48,19.69 ± 0.78,–,–,–,65.00 ± 1.84,–,–,–,53.22 ± 0.26,58.53 ± 0.46,66.1 ± 1.09,–,56.32 ± 1.77,59.94 ± 1.26,inhibition at 10 µM [1]: 41%
COc1cc(/C=C/C(=O)CC(=O)/C=C/c2ccc(O)cc2F)cc(CN(C)C)c1O [Compound 4],–,40.64 ± 1.28,29.91 ± 1.78,10.48 ± 0.47,–,–,–,59.56 ± 0.59,–,–,–,61.7 ± 2.59,71 ± 2.33,84.7 ± 2.76,–,49.46 ± 1.97,51.75 ± 0.40,–
COc1cc(/C=C/C(=O)CC(=O)/C=C/c2cc(CN(C)C)c(O)c(OC)c2)ccc1O [Compound 15],–,41.85 ± 1.07,28.31 ± 0.33,14.00 ± 0.92,60.18 ± 1.41,71.98 ± 3.71,87.82 ± 1.77,–,58.6 ± 0.61,63.45 ± 0.21,–,–,–,–,–,–,–,inhibition at 10 µM [1]: 44%; anti-oxidant capacity compared with curcumin [3]: no statistical difference; radiation protection capability compared with curcumin (PC 12 cell lines; irradiated PC 12): no statistical difference; viability at 20 µM (PC 12 cell lines): 77 ± 1.23%

# Further lines, with some results ahead:
solubility [2] [mg/mL],SMILES,The production of NO ([1]; Dose 5 μM),The production of NO ([1]; Dose 10 μM),The production of NO ([1]; Dose 15 μM),Cell viability ([3]; Dose 5 μM),Cell viability ([3]; Dose 10 μM),Cell viability ([3]; Dose 20 μM),Cell viability (PC 12 cell lines; Dose 20 μM),viability at 5 µM (PC 12 cell lines) [%],viability at 10 µM (PC 12 cell lines) [%],inhibitory activity against NO production compared with curcumin [1],viability at 5 µM [3] [%],viability at 10 µM [3] [%],viability at 20 µM [3] [%],radiation protection capacity (PC 12 cell lines),Cell viability (PC 12 cell lines; Dose 5 μM),Cell viability (PC 12 cell lines; Dose 10 μM),other results
255,COc1cc(/C=C/C(=O)CC(=O)/C=C/c2ccc(O)cc2C)cc(CN(C)C)c1O [Compound 3a],32.92 ± 2.00,16.27 ± 1.74,5.29 ± 0.97,61.60 ± 3.89,72.94 ± 2.65,86.90 ± 1.63,–,57.1 ± 3.05,64.2 ± 0.94,better inhibitory activity,–,–,–,–,–,–,viability at 20 µM (PC 12 cell lines): 69.1 ± 2.51%
126,COc1cc(/C=C/C(=O)CC(=O)/C=C/c2c(OC)cc(O)cc2OC)cc(CN(C)C)c1O [Compound 14a],29.10 ± 0.37,13.47 ± 0.31,7.49 ± 0.40,–,–,–,77.66 ± 1.75,–,–,better inhibitory activity,68 ± 3.05,77.1 ± 0.64,81.9 ± 1.35,a certain degree of radiation protection capacity,64.83 ± 0.66,68.68 ± 1.31,radiation protection capability compared with curcumin (PC 12 cell lines; irradiated PC 12): better radiation protection capability
206,COc1cc(/C=C/C(=O)CC(=O)/C=C/c2cc(C)c(O)cc2C)cc(CN(C)C)c1O [Compound 12a],18.38 ± 1.63,12.76 ± 0.83,9.05 ± 0.72,–,–,–,77.34 ± 2.18,–,–,better inhibitory activity,76.3 ± 3.14,81.9 ± 2.3,88.1 ± 2.09,a certain degree of radiation protection capacity,59.04 ± 1.00,63.19 ± 1.90,anti-oxidant capacity compared with curcumin [3]: better anti-oxidant capacity
132,COc1ccc(/C=C/C(=O)CC(=O)/C=C/c2cc(CN(C)C)c(O)c(OC)c2)cc1O [Compound 11a],35.82 ± 1.34,15.68 ± 3.02,4.63 ± 0.40,–,–,–,106.32 ± 7.58,–,–,better inhibitory activity,61.5 ± 1.46,73.7 ± 3.89,97.3 ± 1.95,a certain degree of radiation protection capacity,60.93 ± 1.64,64.92 ± 0.58,"cell survival rate (radiation protection) (PC 12 cell lines; at 20 μM, irradiated PC 12): 106%"
148,COc1cc(/C=C/C(=O)CC(=O)/C=C/c2cc(OC)c(O)c(OC)c2)cc(CN(C)C)c1O [Compound 2a],41.89 ± 1.95,38.68 ± 0.96,36.24 ± 0.50,56.60 ± 0.54,61.51 ± 1.77,65.65 ± 1.31,92.24 ± 6.04,57.7 ± 4.12,61.6 ± 4.11,–,–,–,–,–,–,–,cell survival rate (anti-oxidant) [3]: 61%
284,COc1cc(/C=C/C(=O)CC(=O)/C=C/c2cc(CN(C)C)c(O)c(OC)c2)ccc1O [Compound 15a],33.79 ± 2.90,17.01 ± 0.60,4.71 ± 0.18,–,–,–,–,–,–,better inhibitory activity,62.2 ± 2.53,72.5 ± 2.02,89.22 ± 0.36,–,–,–,–

# From PMC11085442 (Molecules, 2024)
